One series deals with Enterobacter cloacae. Briefly: Minimum inhibitory concentration in vitro. It counts as cell-based. The conditions noted are these: ß-Lactamase bildende Stämme. The text has this: (§1) Zum Nachweis der antimikrobiellen Wirksamkeit der erwähnten Produkte wurde das (6R,7R)-7-[2-(2-Amino-5-thiazolyl)-2-[(Z)-methoxyimino]acetamido]-3-[[(2,5-dihydro-2-methyl-5-oxo-as-triazin-3-yl)thio]methyl]-8-oxo-5-thia-1-azabicyclo[4.2.0]oct-2-en-2-carbonsäure-Natriumsalz auf seine Aktivität in vitro gegen verschiedene Krankheitserreger getestet. Nachstehend sind die entsprechenden Mindesthemmkonzentrationen (MIC; µg/ml) zusammengestellt: […]

The test system of a further series is Escherichia coli. Briefly: Minimum inhibitory concentration in vitro. In kind it is cell-based. Conditions: ß-Lactamase bildende Stämme.
Excerpt: as §1

The subject of the next series is Haemophilus influenzae. Briefly: Minimum inhibitory concentration in vitro. It counts as cell-based.
Excerpt: as §1

The next series deals with Neisseria gonorrhoeae. Briefly: Minimum inhibitory concentration in vitro. In kind it is cell-based.
Excerpt: as §1

For the next series, the system named is Proteus mirabilis. Briefly: Minimum inhibitory concentration in vitro. Conditions: ß-Lactamase bildende Stämme. In kind it is cell-based.
Excerpt: as §1

The subject of the next series is Proteus vulgaris. Briefly: Minimum inhibitory concentration in vitro. In kind it is cell-based. Conditions: ß-Lactamase bildende Stämme.
Excerpt: as §1

Series [1] concerns Pseudomonas aeruginosa Stamm 1. Briefly: Minimum inhibitory concentration in vitro. It counts as cell-based. The conditions noted are these: STAMM1, ß-Lactamase bildende Stämme.
Excerpt: as §1

Series [2] relates to Pseudomonas aeruginosa Stamm 2. Briefly: Minimum inhibitory concentration in vitro. In kind it is cell-based. The conditions noted are these: STAMM2, ß-Lactamase bildende Stämme.
Excerpt: as §1

Another series relates to Serratia marcescens. Briefly: Minimum inhibitory concentration in vitro. Conditions: ß-Lactamase bildende Stämme. In kind it is cell-based.
Excerpt: as §1

The next series concerns Staphylococcus aureus. Briefly: Minimum inhibitory concentration in vitro. It counts as cell-based.
Excerpt: as §1

Another series in a line: Toxicity (lethal dose). It counts as in vivo.

Molecules are shown by their SMILES. ≈ marks a conversion by molar mass, not a printed value. Where only a bound is given, the exact number is not on record here.

`CO/N=C(\C(=O)N[C@@H]1C(=O)N2C(C(=O)O)=C(CSc3nc(=O)cnn3C)CS[C@H]12)c1csc(N)n1` [(6R,7R)-7-[2-(2-Amino-4-thiazolyl)-2-[(Z)-methoxyimino]ace-tamido]-3-[[(2,5-dihydro-2-methyl-5-oxo-as-triazin-3-yl)thio]methyl]-8-oxo-5-thia-1-azabicyclo[4.2.0]oct-2-en-2-carbonsäure-Natriumsalz]: the MIC against Enterobacter cloacae was 2.5 µg/mL (≈ 4.64 µM); in the series with Escherichia coli, 0.04 µg/mL (≈ 0.0743 µM); against Haemophilus influenzae, 0.02 µg/mL (≈ 0.0371 µM); against Neisseria gonorrhoeae, 0.02 µg/mL (≈ 0.0371 µM); in the series with Proteus mirabilis, 0.04 µg/mL (≈ 0.0743 µM); in the series on Proteus vulgaris it was 0.02 µg/mL (≈ 0.0371 µM). The MIC in series [1] is 40 µg/mL (≈ 74.3 µM); in series [2], 40 µg/mL (≈ 74.3 µM); against Serratia marcescens, 0.16 µg/mL (≈ 0.297 µM); against Staphylococcus aureus, 2.5 µg/mL (≈ 4.64 µM). Further, the LD100 in “Toxicity (lethal dose)” (i.v.) was 1000 mg/kg; in the series “Toxicity (lethal dose)” (p.o.), >5000 mg/kg; in the series “Toxicity (lethal dose)” (s.c.) it was >5000 mg/kg.

Source of the values: patent publication EP0036650A2, “Cephalosporin derivatives, process for their preparation, corresponding compositions, their use in the treatment of diseases and intermediates” (F. HOFFMANN-LA ROCHE & CO. Aktiengesellschaft, priority 1980, dated 1981).
